One may read the MIC as the lowest concentration found to suppress growth. A high value points to a less susceptible organism.

The results in this text go back to patent US4327093A, “3,7-Disubstituted-2 or 3-cephem-4-carboxylic acid compounds” (Fujisawa Pharmaceutical Co., Ltd., priority 1978, dated 1982).

One test deals with Klebsiella pneumoniae 20. Nature of the test: Minimal inhibitory concentration (MIC) by agar streak, HI-agar, 37° C., 20 hours. Type of test: cell-based. Particulars: 10^6 viable cells per ml, 37° C. for 20 hours. As to the method:
(§1) One loopful of an overnight culture of each test strain in Trypticase-soy broth (10^6 viable cells per ml.) was streaked on heart infusion agar (HI-agar) containing graded concentrations of antibiotics, and the minimal inhibitory concentration (MIC) was expressed in terms of μg/ml after incubation at 37° C. for 20 hours.

The test system of another test is Proteus mirabilis 18. Described as above. It is filed as cell-based. Particulars: 10^6 viable cells per ml, 37° C. for 20 hours. As to the method: as §1

Structures are written as SMILES. Converted amounts (≈) assume the structure as drawn.

With `CO/N=C(\C(=O)NC1C(=O)N2C(C(=O)O)=C(COC(=O)N3CCN(C)CC3)CSC12)c1csc(N)n1` (stereo not shown) [(1)], the MIC against Klebsiella pneumoniae 20 came out at 0.1 µg/mL (≈ 0.185 µM); in the test on Proteus mirabilis 18 it was 0.05 µg/mL (≈ 0.0927 µM).

For the compound `CO/N=C(\C(=O)NC1C(=O)N2C(C(=O)O)=C(COC(=O)N3CCN(C)CC3)CSC12)c1nsc(N)n1` (stereo not shown) [(2)], the minimal inhibitory concentration (MIC) against Klebsiella pneumoniae 20 worked out at 0.05 µg/mL (≈ 0.0925 µM); with Proteus mirabilis 18, 0.2 µg/mL (≈ 0.37 µM).
